Results reported in article PMC8150775, “Repositioning Azelnidipine as a Dual Inhibitor Targeting CD47/SIRPα and TIGIT/PVR Pathways for Cancer Immuno-Therapy” (Biomolecules, 2021).

How the values were obtained:
[1] = system: CT26 tumors; assay: CT26 tumor model with ex vivo T cell analysis; type: in vivo, BALB/c mice; settings: for Spleen CD8+IFN-γ (%): splenocytes
Method: BABL/c mice were subcutaneously (s.c.) injected with 2 × 10^5 CT26 cells on the right back, and C57BL/6 mice were injected with 1 × 10^6 MC38 cells. One week later, tumor-bearing mice were randomized into indicated groups, and intraperitoneal (i.p.) injected with azelnidipine or normal saline every day for two weeks. Tumor volumes were measured every other day by the (a) length, (b) width, and (c) height and calculated as volume (V) = a × b × c/2. For the combinational model of azelnidipine and radiotherapy (RT), MC38 tumor-bearing mice received irradiation (IR) when the tumors reached 80–100 mm^3. The mice received one dose of 20 Gy irradiation at the tumor local site, and followed by the treatment of azelnidipine.
Tumor-bearing mice were sacrificed at the end of the treatment. The tumors were dissected and digested into single cell with an enzyme cocktail of 100 U/mL collagenase IV; and Dnase I. The infiltration of CD8^+ T cells at the tumor site was detected by flow cytometry by staining of anti-mouse CD45, anti-mouse CD3, anti-mouse CD8α or isotype control. The MDSCs at the tumor site were analyzed by staining of anti-mouse CD45, anti-mouse CD11b, anti-mouse Ly6C, and anti-mouse Ly6G. Spleens and draining lymph nodes were grinded and filtered into a single cell suspension. The tumor-infiltrating lymphocytes (TILs) isolated by Percoll-gradient centrifugation, splenocytes, and cells from draining lymph nodes were also performed the intracellular cytokine staining assays. The cells were stimulated with or without 20 ng/mL of phorbol 12-myristate 13-acetate (PMA, Sigma-Aldrich, St. Louis, MO, USA) and 1 µM ionomycin (Sigma-Aldrich) with the presence of protein transport inhibitor cocktail (eBioscience) for 4 h. The surface marker CD3, CD8, and the intracellular cytokine marker IFN-γ were sequentially stained according to the Foxp3/Transcription Factor Staining Buffer Set (00-5523, eBioscience). The frequency of IFN-γ secreting CD8^+ T cells were counted according to the fluorescence minus one (FMO) control with the isotype control of IFN-γ antibody.
Figure 6 The antitumor effects of azelnidipine in CT26 tumor model. (A) CT26 tumor-bearing mice were i.p. administrated with 2 or 5 mg/kg of azelnidipine each day for 2 weeks as in the schematic diagram. (B) Tumor growth curve of CT26 tumor-bearing mice treated with normal saline or azelnidipine (n = 7). *, p < 0.05, ***, p < 0.001.Two-way ANOVA with Tukey’s multiple-comparisons test were conducted. (C) Representative flow cytometry plots and summary data of the frequency of CD8^+ T cells in the tumor tissues. Representative intracellular IFN-γ staining plots and summary data of the tumor infiltrating CD8^+ T cells (D), tumor-draining lymph node cells (E) and splenocytes (F). The frequency of IFN-γ secreting CD8^+ T cells were counted according to the fluorescence minus one (FMO) control with the isotype control of IFN-γ antibody. *, p < 0.05, **, p < 0.01, Student’s t-test were conducted. TEXT PRINTED IN THE PICTURE: (C) NS: Tumor CD3^+CD8^+ (%): 6.27 | (C) Azelnidipine: Tumor CD3^+CD8^+ (%): 7.46 (2 mg/kg); Tumor CD3^+CD8^+ (%): 9.35 (5 mg/kg) | (D) NS: Tumor CD8^+IFN-γ (%): 14.8 | (D) Azelnidipine: Tumor CD8^+IFN-γ (%): 12.4 (2 mg/kg); Tumor CD8^+IFN-γ (%): 20.0 (5 mg/kg) | (E) NS: dLN CD8^+IFN-γ (%): 0.45 | (E) Azelnidipine: dLN CD8^+IFN-γ (%): 0.53 (2 mg/kg); dLN CD8^+IFN-γ (%): 1.10 (5 mg/kg) | (F) NS: Spleen CD8^+IFN-γ (%): 5.32 | (F) Azelnidipine: Spleen CD8^+IFN-γ (%): 7.71 (2 mg/kg); Spleen CD8^+IFN-γ (%): 7.91 (5 mg/kg) DOUBTS OF THE COPYIST ABOUT THIS PICTURE: Panels C-F: the flow plots are headed only 'NS', '2 mg/kg' and '5 mg/kg'. The name 'Azelnidipine' is taken from panels A and B of the same picture. / Panels C-F: the numbers in the flow plots have no measure or unit beside them. The measure (e.g. 'CD3^+CD8^+ (%)') and the tissue ('Tumor', 'dLN', 'Spleen') are taken from the bar chart in the same panel. / NS is the control group. […]

[2] = molecular target: T1, mouse CD47/SIRPα (Mus musculus, UniProt P97797); assay: Blocking assay, mouse SIRPα protein binding to CHOK1-mCD47 cells; settings: concentration gradient; read-out: IC50, blocking mouse CD47/SIRPα (mSirpα binding)
T1 construct: purchased ACRO Biosystem SIA-M5258; host or cells: soluble protein purchased; CD47 on CHOK1-mCD47 cells (lenti-viral transfection)
Method: The abilities of small molecule inhibitors (SMIs) (purchased from TargetMol, Shanghai, China) to block the binding of SIRPα protein to CHOK1-CD47 cells or PVR protein to CHOK1-TIGIT cells were determined by flow cytometry, as previously reported. The SMIs at indicated concentrations were incubated with Fc-tagged SIRPα or PVR protein for 30 min at 4°C, followed by incubating with the indicated cells for another 30 min. Human SIRPα protein (SIA-[…], ACRO Biosystem, Beijing, China), mouse SIRPα protein (SIA-[…], ACRO Biosystem, Beijing, China), human PVR protein (CD5-[…], ACRO Biosystem, Beijing, China), and mouse PVR protein (50259-[…], Sino Biological, Beijing, China) were used. PE-conjugated anti-human IgG antibody was used to detect the Fc protein bind to cells. Cells incubated with the Fc proteins and anti-human IgG antibody without the SMIs serve as the positive control. The mean fluorescent intensity (MFI) of each sample was detected and recorded by a flow cytometry. The blocking efficacy of the SMIs was calculated as the equation: (MFI of the positive control-MFI of the SMI)/MFI of the positive control × 100%.

T1 sequence (P97797 32-373 limits assumed): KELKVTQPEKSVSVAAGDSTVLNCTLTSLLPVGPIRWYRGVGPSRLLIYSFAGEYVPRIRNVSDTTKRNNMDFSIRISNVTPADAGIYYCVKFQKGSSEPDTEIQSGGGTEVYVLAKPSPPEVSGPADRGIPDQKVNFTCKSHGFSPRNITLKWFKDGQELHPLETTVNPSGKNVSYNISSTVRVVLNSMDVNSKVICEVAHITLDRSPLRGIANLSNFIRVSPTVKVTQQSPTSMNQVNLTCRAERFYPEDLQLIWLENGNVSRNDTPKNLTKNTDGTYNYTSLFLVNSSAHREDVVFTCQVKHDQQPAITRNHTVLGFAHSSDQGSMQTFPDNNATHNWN

SMILES: CC1=C(C(=O)OC(C)C)C(c2cccc([N+](=O)[O-])c2)C(C(=O)OC2CN(C(c3ccccc3)c3ccccc3)C2)=C(N)N1 (stereo not shown) [Azelnidipine]
- Spleen CD8+IFN-γ (%) ([1]; 2 mg/kg i.p. (low dosage)): enhance
- Spleen CD8+IFN-γ (%) ([1]; 5 mg/kg i.p. (high dosage)): significantly boost
- dLN CD8+IFN-γ (%) ([1]; 5 mg/kg i.p. (high dosage), tumor-draining lymph node): significantly boost
- CT26 tumor growth ([1]; 2 and 5 mg/kg i.p. each day for 2 weeks): significantly restrict
- IFN-γ secretion function of the tumor infiltrating CD8+ T cells ([1]; dose not given): enhanced
- frequency of CD8+ T cells in the tumor tissues ([1]; dose not given): remarkably increase
- IC50 [2]: ~37 µM
